Activity calls are given as the source filed them. The calls are words filed in the database; no cut-off is given here.

In data set [1] the target is T1, DNA topoisomerase 1 (Homo sapiens) (UniProt P11387).
T1 sequence (whole entry): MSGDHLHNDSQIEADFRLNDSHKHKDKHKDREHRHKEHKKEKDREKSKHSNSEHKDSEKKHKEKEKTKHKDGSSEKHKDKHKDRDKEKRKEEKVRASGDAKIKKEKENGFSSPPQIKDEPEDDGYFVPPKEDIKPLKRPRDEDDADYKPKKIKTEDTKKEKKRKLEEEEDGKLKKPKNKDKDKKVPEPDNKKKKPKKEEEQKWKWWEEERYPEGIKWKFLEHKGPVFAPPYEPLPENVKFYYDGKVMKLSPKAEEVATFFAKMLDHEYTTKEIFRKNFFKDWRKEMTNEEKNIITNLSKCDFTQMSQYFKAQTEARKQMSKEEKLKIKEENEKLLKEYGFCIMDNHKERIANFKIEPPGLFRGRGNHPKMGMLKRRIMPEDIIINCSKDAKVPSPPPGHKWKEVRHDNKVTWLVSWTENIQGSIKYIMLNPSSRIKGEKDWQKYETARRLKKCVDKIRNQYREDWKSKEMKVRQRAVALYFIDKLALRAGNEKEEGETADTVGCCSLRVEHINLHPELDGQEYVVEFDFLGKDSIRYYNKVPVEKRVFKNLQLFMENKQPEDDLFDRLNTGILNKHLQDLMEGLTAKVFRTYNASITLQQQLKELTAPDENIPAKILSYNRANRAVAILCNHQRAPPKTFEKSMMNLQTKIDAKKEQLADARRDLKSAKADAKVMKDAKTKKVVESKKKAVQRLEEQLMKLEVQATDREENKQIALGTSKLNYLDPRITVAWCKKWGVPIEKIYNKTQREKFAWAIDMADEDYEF
Put plainly: Inhibition of Topoisomerase 1 (unknown origin) at 100 uM incubated for 15 mins by electrophoretic analysis.

Data set [2] addresses T1, DNA topoisomerase 1 (Homo sapiens). The data set can be described thus: Inhibition of Topoisomerase 1 (unknown origin) at 50 uM incubated for 15 mins by electrophoretic analysis.
Data set [3] has the same target. Put plainly: Inhibition of Topoisomerase 1 (unknown origin) at 25 uM incubated for 15 mins by electrophoretic analysis relative to control.
The subject of data set [4] is SGC-7901. Put plainly: Induction of apoptosis in human SGC-7901 cells assessed as necrotic cells at 96 nM incubated for 24 hrs by AnnexinV-FITC/PI staining based flow cytometric analysis (reference value: 0.63%). It counts as functional.
Data set [5] can be described thus: Toxicity in BALB/C mouse xenografted with human MGC-803 cells assessed as decrease in body weight at 0.5 mg/kg, ip administered once daily for 17 days. Conditions: in vivo, 408 h, time 17 day. It counts as organism-based. In general terms: Xenograft models place foreign cells or tissue in a host animal.
Data set [6] deals with SGC-7901. The data set can be described thus: Cell cycle arrest in human SGC-7901 cells assessed as accumulation of cells at S phase at 48 nM incubated for 24 hrs by PI staining based flow cytometric analysis (Rvb =18.41%). It counts as functional. (Flow cytometry measures light scatter and fluorescence of single cells or particles in a stream.)
In data set [7] the test system is SGC-7901. The data set can be described thus: Induction of apoptosis in human SGC-7901 cells assessed as viable cells at 96 nM incubated for 24 hrs by AnnexinV-FITC/PI staining based flow cytometric analysis (reference value: 96.94%). It counts as functional. Particulars: read-out: Activity.
Data set [8] relates to MGC-803. Put plainly: Induction of apoptosis in human MGC-803 cells assessed as early apoptotic cells at 96 nM incubated for 24 hrs by AnnexinV-FITC/PI staining based flow cytometric analysis (reference value: 0.38%). It counts as functional.
The test system of data set [9] is MGC-803. The data set can be described thus: Antitumor activity against human MGC-803 cells xenografted in BALB/C mouse assessed as tumor growth inhibition at 0.5 mg/kg, ip administered once a day for 17 days relative to control. It counts as functional. Conditions: MGC-803, 408 h, time 17 day, read-out: TGI.
Data set [10] deals with SGC-7901. Put plainly: Cell cycle arrest in human SGC-7901 cells assessed as accumulation of cells at G0/G1 phase at 48 nM incubated for 24 hrs by PI staining based flow cytometric analysis (Rvb =84.12%). It counts as functional.
The subject of data set [11] is MGC-803. Put plainly: Induction of apoptosis in human MGC-803 cells assessed as viable cells at 96 nM incubated for 24 hrs by AnnexinV-FITC/PI staining based flow cytometric analysis (reference value: 98.59%). It counts as functional. Conditions: read-out: Activity.
The subject of data set [12] is MGC-803. The data set can be described thus: Cell cycle arrest in human MGC-803 cells assessed as accumulation of cells at S phase at 48 nM incubated for 24 hrs by PI staining based flow cytometric analysis (Rvb =7.84%). It counts as functional.
The test system of data set [13] is MGC-803. The data set can be described thus: Induction of apoptosis in human MGC-803 cells assessed as late apoptotic cells at 96 nM incubated for 24 hrs by AnnexinV-FITC/PI staining based flow cytometric analysis (reference value: 0.52%). It counts as functional.
Data set [14] has as its system SGC-7901. The data set can be described thus: Induction of apoptosis in human SGC-7901 cells assessed as early apoptotic cells at 96 nM incubated for 24 hrs by AnnexinV-FITC/PI staining based flow cytometric analysis (reference value: 0.47%). It counts as functional.
Data set [15] relates to SGC-7901. Put plainly: Induction of apoptosis in human SGC-7901 cells assessed as late apoptotic cells at 96 nM incubated for 24 hrs by AnnexinV-FITC/PI staining based flow cytometric analysis (reference value: 2.00%). It counts as functional.
In data set [16] the test system is MGC-803. Put plainly: Induction of apoptosis in human MGC-803 cells assessed as necrotic cells at 96 nM incubated for 24 hrs by AnnexinV-FITC/PI staining based flow cytometric analysis (reference value: 0.53%). It counts as functional.
For data set [17], the system named is MGC-803. The data set can be described thus: Cell cycle arrest in human MGC-803 cells assessed as accumulation of cells at G2/M phase at 48 nM incubated for 24 hrs by PI staining based flow cytometric analysis (Rvb =15.42%). It counts as functional.
Data set [18] relates to MGC-803. The data set can be described thus: Cell cycle arrest in human MGC-803 cells assessed as accumulation of cells at G0/G1 phase at 48 nM incubated for 24 hrs by PI staining based flow cytometric analysis (Rvb =76.60%). It counts as functional.
Data set [19] relates to SGC-7901. The data set can be described thus: Cell cycle arrest in human SGC-7901 cells assessed as accumulation of cells at G2/M phase at 48 nM incubated for 24 hrs by PI staining based flow cytometric analysis (Rvb =18.84%). It counts as functional.

With `Cc1ccc2c(c1)C(=O)N1CCc3c([nH]c4ccc(C)cc34)C1N2c1cccc(F)c1` (stereo not drawn), the inhibition entry in data set [1] and in data set [2] was “Active” throughout. Also, the inhibition (in general, the percentage by which the read-out fell short of the control) in data set [3] was found to be 46.2%.
As to `CC[C@@]1(O)C(=O)OCc2c1cc1n(c2=O)Cc2cc3c(CN(C)C)c(O)ccc3nc2-1` [TOPOTECAN], the Activity is recorded as 1.22% in the data set on SGC-7901 [4]; “Toxic” in data set [5]; 18.52% in the data set with SGC-7901 [6]; 5.23% in the data set with MGC-803 [8]; 58.3% with SGC-7901 [10]; 6.84% in the data set on MGC-803 [12]. For the same compound, the Activity in the data set on MGC-803 [13] was 15.95%; in the data set with SGC-7901 [14], 0.8%; in the data set with SGC-7901 [15], 9.93%; in the data set with MGC-803 [16], 1.75%; in the data set on MGC-803 [17], 13.27%; in the data set on MGC-803 [18], 79.72%. Also, the Activity with SGC-7901 [19] is on record as 22.72%. Also, the viability at 0.096 µM was found to be 88.1% with SGC-7901 [7] and 77% with MGC-803 [11]. Further, the inhibition in vivo at 0.5 mg/kg in the data set on MGC-803 [9] stood at 67%.
Consider `COc1cc([C@@H]2c3cc4c(cc3[C@@H](O[C@@H]3O[C@@H]5CO[C@@H](C)O[C@H]5[C@H](O)[C@H]3O)[C@H]3COC(=O)[C@H]23)OCO4)cc(OC)c1O` [ETOPOSIDE], for which the Activity in the data set with SGC-7901 [4] stood at 0.91%; with SGC-7901 [6], 17.72%; in the data set with MGC-803 [8], 2.29%; in the data set on SGC-7901 [10], 62.98%; in the data set on MGC-803 [12], 6.96%; in the data set with MGC-803 [13], 9.4%. Moreover, the Activity is on record as 0.75% in the data set with SGC-7901 [14]; 10.98% with SGC-7901 [15]; 0.8% in the data set on MGC-803 [16]; 16.63% in the data set with MGC-803 [17]; 76.34% in the data set on MGC-803 [18]; 19.3% in the data set with SGC-7901 [19]. Also, the viability at 0.096 µM was determined as 87.4% in the data set on SGC-7901 [7] and 87.5% in the data set with MGC-803 [11].
